Data on three molecules can be found in the NIST ThermoML archive (doi:10.1016/j.jct.2015.08.010).

± gives the expanded uncertainty stated by the source.

For data set [1] the following is noted: 100 kPa, Liquid; for viscosity: Falling or rolling sphere viscometry; for mass density: Vibrating tube method.
Data set [2] can be described thus: xn = mol fraction of the nth substance listed. Particulars: 100 kPa, Liquid, Falling or rolling sphere viscometry, x2 = 0.

Consider `C1CCC2=NCCC[NH+]2CC1.c1c[n-]cn1` [1,8-diazabicyclo[5.4.0]undec-7-enium imidazolide], for which the viscosity in data set [1] (293.15 K) amounted to 47.82 ± 1.2 mPa·s; in data set [1] (298.15 K), 34.94 ± 0.85 mPa·s; in data set [1] (303.15 K) it was 26.36 ± 0.64 mPa·s; in data set [1] (308.15 K), 20.5 ± 0.49 mPa·s; in data set [1] (313.15 K), 16.28 ± 0.39 mPa·s. In addition, the mass density in data set [1] (293.15 K) was found to be 1053.63 ± 4.3 kg/m3; in data set [1] (298.15 K), 1049.78 ± 4.3 kg/m3; in data set [1] (303.15 K) it was 1045.94 ± 4.3 kg/m3; in data set [1] (308.15 K), 1042.11 ± 4.2 kg/m3; in data set [1] (313.15 K), 1038.28 ± 4.2 kg/m3.
Consider `O` [water], for which the viscosity was found to be 1.002 ± 0.021 mPa·s in data set [1] (293.15 K); 0.89 ± 0.02 mPa·s in data set [1] (298.15 K); 0.797 ± 0.017 mPa·s in data set [1] (303.15 K); 0.718 ± 0.015 mPa·s in data set [1] (308.15 K); 0.651 ± 0.014 mPa·s in data set [1] (313.15 K).
On to `O` [water] + C1CCC2=NCCC[NH+]2CC1.c1c[n-]cn1, for which the viscosity in data set [2] (293.15 K) amounted to 1.002 ± 0.021 mPa·s; in data set [2] (298.15 K), 0.89 ± 0.02 mPa·s; in data set [2] (303.15 K), 0.797 ± 0.017 mPa·s; in data set [2] (308.15 K), 0.718 ± 0.015 mPa·s; in data set [2] (313.15 K), 0.651 ± 0.014 mPa·s.
